The source of these data is ChEMBL document CHEMBL4602605, “Fluoroquinolones structural and medicinal developments (2013-2018): Where are we now?” (Bioorg Med Chem, 2019).

≈ marks a conversion by molar mass, not a printed value.

Holding throughout (format): functional
The subject of assay [1] is Staphylococcus epidermidis. Nature of the assay: Antimicrobial activity against methicillin-susceptible Staphylococcus epidermidis clinical isolate incubated for 16 hrs by CLSI based agar dilution method.
In assay [2] the test system is Escherichia coli. Nature of the assay: Antimicrobial activity against Escherichia coli ATCC 700603 incubated for 16 hrs by CLSI-based agar dilution method. To be noted: ATCC 700603, 16 h.
Assay [3] concerns Staphylococcus aureus. Nature of the assay: Antimicrobial activity against methicillin-susceptible Staphylococcus aureus clinical isolate incubated for 16 hrs by CLSI based agar dilution method.
Assay [4] has as its system Klebsiella pneumoniae. Nature of the assay: Antimicrobial activity against Klebsiella pneumoniae ATCC 29522 incubated for 16 hrs by CLSI-based agar dilution method. To be noted: ATCC 29522, 16 h.
Assay [5] concerns Staphylococcus epidermidis. Briefly: Antimicrobial activity against methicillin-resistant Staphylococcus epidermidis clinical isolate incubated for 16 hrs by CLSI based agar dilution method. In general terms: In agar dilution, organisms are placed on agar that contains the substance at set levels.
In assay [6] the test system is Staphylococcus aureus. Briefly: Antimicrobial activity against methicillin-resistant Staphylococcus aureus clinical isolate incubated for 16 hrs by CLSI based agar dilution method.
The subject of assay [7] is Staphylococcus aureus. Briefly: Antimicrobial activity against Staphylococcus aureus ATCC 25923 incubated for 18 to 24 hrs.
Assay [8] deals with Escherichia coli. Briefly: Antimicrobial activity against Escherichia coli ATCC 25922 incubated for 18 to 24 hrs.
The test system of assay [9] is Staphylococcus aureus. Briefly: Antimicrobial activity against methicillin-resistant Staphylococcus aureus ATCC 12-1 incubated for 18 to 24 hrs.
Assay [10] concerns Pseudomonas aeruginosa. Nature of the assay: Antimicrobial activity against Pseudomonas aeruginosa ATCC 12-12 incubated for 18 to 24 hrs.
Assay [11] relates to Staphylococcus epidermidis. Nature of the assay: Antimicrobial activity against methicillin-resistant Staphylococcus epidermidis 12-1 incubated for 18 to 24 hrs.
The test system of assay [12] is Klebsiella pneumoniae. Nature of the assay: Antimicrobial activity against ESBL-producing Klebsiella pneumoniae ATCC 700603.
The subject of assay [13] is Pseudomonas aeruginosa. Briefly: Antimicrobial activity against Pseudomonas aeruginosa ATCC 27853.
A further assay deals with Enterobacter cloacae. Nature of the assay: Antimicrobial activity against Enterobacter cloacae ATCC 43560.
The test system of assay [14] is Acinetobacter calcoaceticus. Nature of the assay: Antimicrobial activity against Acinetobacter calcoaceticus ATCC 19606.
In assay [15] the test system is Escherichia coli. Nature of the assay: Antimicrobial activity against ESBL non-producing Escherichia coli ATCC 25922.

A word on the MIC: it is the lowest concentration found to suppress growth.

As to `O=C(O)c1cn(C2CC2)c2cc(N3CCN(CC(O)Cn4cc([N+](=O)[O-])nc4Cl)CC3)c(F)cc2c1=O` (stereo unspecified), the MIC was 2 µg/mL (≈ 3.74 µM) in assay [1]; 16 µg/mL (≈ 29.9 µM) against Escherichia coli [2]; 4 µg/mL (≈ 7.48 µM) in the assay with Staphylococcus aureus [3]; more than 32 µg/mL against Klebsiella pneumoniae [4]; 2 µg/mL (≈ 3.74 µM) in assay [5]; 32 µg/mL (≈ 59.8 µM) in the assay with Staphylococcus aureus [6].

In the case of `CO/N=C1\CCN(c2c(F)cc3c(=O)c(C(=O)O)cn(C4CC4)c3c2OC)CC1NC(=O)CN` (stereo unspecified), the MIC in the assay on Staphylococcus aureus [7] is 0.25 µg/mL (≈ 0.526 µM); in the assay on Escherichia coli [8] it was 4 µg/mL (≈ 8.41 µM); in the assay on Staphylococcus aureus [9], 32 µg/mL (≈ 67.3 µM); against Pseudomonas aeruginosa [10], 32 µg/mL (≈ 67.3 µM); in assay [11], 32 µg/mL (≈ 67.3 µM).

Consider `COc1cc(OC)cc(-c2nn(CN3CCN(c4cc5c(cc4F)c(=O)c(C(=O)O)cn5[C@@H]4C[C@@H]4F)CC3)c(=S)n2-c2ccccc2)c1`, for which the MIC against Klebsiella pneumoniae [12] is 1.48 µM (≈ 0.999 µg/mL); in the assay with Pseudomonas aeruginosa [13], 0.09 µM (≈ 0.0607 µg/mL); against Enterobacter cloacae it was 5.93 µM (≈ 4 µg/mL); in assay [14], 1.48 µM (≈ 0.999 µg/mL); against Escherichia coli [15], not above 0.04 µM.

On to `COc1c(N2CCN(C(O)Cn3cc([N+](=O)[O-])nc3Cl)CC2)c(F)cc2c(=O)c(C(=O)O)cn(C3CC3)c12` (stereo unspecified), for which the MIC in assay [1] was 0.25 µg/mL (≈ 0.454 µM); against Escherichia coli [2], 4 µg/mL (≈ 7.26 µM); against Staphylococcus aureus [3], 0.5 µg/mL (≈ 0.908 µM); with Klebsiella pneumoniae [4], more than 32 µg/mL; in assay [5], 0.03 µg/mL (≈ 0.0545 µM); in the assay on Staphylococcus aureus [6] it was 8 µg/mL (≈ 14.5 µM).

On to `CO/N=C1\CCN(c2c(F)cc3c(=O)c(C(=O)O)cn(C4CC4)c3c2OC)CC1NC(=O)[C@H](N)CC(C)C` (stereo partly specified), for which the MIC in the assay with Staphylococcus aureus [7] worked out at 0.25 µg/mL (≈ 0.47 µM); with Escherichia coli [8], 4 µg/mL (≈ 7.52 µM); against Staphylococcus aureus [9], 64 µg/mL (≈ 120 µM); against Pseudomonas aeruginosa [10], 128 µg/mL (≈ 241 µM); in [11] it was 64 µg/mL (≈ 120 µM).

Turning to `CO/N=C1\CCN(c2c(F)cc3c(=O)c(C(=O)O)cn(C4CC4)c3c2OC)CC1NC(=O)[C@H](C)N` (stereo partly specified), the MIC against Staphylococcus aureus [7] came out at 0.125 µg/mL (≈ 0.255 µM); in the assay with Escherichia coli [8], 4 µg/mL (≈ 8.17 µM); against Staphylococcus aureus [9], 64 µg/mL (≈ 131 µM); in the assay on Pseudomonas aeruginosa [10], 64 µg/mL (≈ 131 µM); in [11], 32 µg/mL (≈ 65.4 µM).

On to `CO/N=C1\CCN(c2c(F)cc3c(=O)c(C(=O)O)cn(C4CC4)c3c2OC)CC1NC(=O)[C@@H](N)C(C)C` (stereo partly specified), for which the MIC in the assay on Staphylococcus aureus [7] amounted to 0.25 µg/mL (≈ 0.483 µM); in the assay on Escherichia coli [8] it was 4 µg/mL (≈ 7.73 µM); against Staphylococcus aureus [9] it was 64 µg/mL (≈ 124 µM); in the assay with Pseudomonas aeruginosa [10], 32 µg/mL (≈ 61.8 µM); in [11], 64 µg/mL (≈ 124 µM).

As for `COc1c(N2CCN(CC(O)Cn3cc([N+](=O)[O-])nc3C)C(C)C2)c(F)cc2c(=O)c(C(=O)O)cn(C3CC3)c12` (stereo unspecified), the MIC in assay [1] was 1 µg/mL (≈ 1.79 µM); with Escherichia coli [2], 8 µg/mL (≈ 14.3 µM); against Staphylococcus aureus [3], 1 µg/mL (≈ 1.79 µM); with Klebsiella pneumoniae [4], more than 32 µg/mL; in [5], 1 µg/mL (≈ 1.79 µM); against Staphylococcus aureus [6], 32 µg/mL (≈ 57.3 µM).

Take `CO/N=C1\CCN(c2c(F)cc3c(=O)c(C(=O)O)cn(C4CC4)c3c2OC)CC1NC(=O)[C@H](N)Cc1ccc(O)cc1` (stereo partly specified): the MIC in the assay with Staphylococcus aureus [7] was 2 µg/mL (≈ 3.44 µM); against Escherichia coli [8], 16 µg/mL (≈ 27.5 µM); in the assay with Staphylococcus aureus [9], more than 128 µg/mL; against Pseudomonas aeruginosa [10], 128 µg/mL (≈ 220 µM); in [11], 64 µg/mL (≈ 110 µM).

For the compound `COc1c(N2CCN(C[C@H](O)Cn3cc([N+](=O)[O-])nc3C)C(C)C2)c(F)cc2c(=O)c(C(=O)O)cn(C3CC3)c12` (stereo partly specified), the MIC in assay [1] was 32 µg/mL (≈ 57.3 µM); against Escherichia coli [2], 32 µg/mL (≈ 57.3 µM); in the assay on Staphylococcus aureus [3] it was 32 µg/mL (≈ 57.3 µM); against Klebsiella pneumoniae [4] it was 32 µg/mL (≈ 57.3 µM); in [5], 32 µg/mL (≈ 57.3 µM); with Staphylococcus aureus [6] it was 16 µg/mL (≈ 28.6 µM).

Consider `COc1c(N2CCCC(N(C)CC(O)Cn3cc([N+](=O)[O-])nc3C)C2)c(F)cc2c(=O)c(C(=O)O)cn(C3CC3)c12` (stereo unspecified), for which the MIC in assay [1] was determined as 0.5 µg/mL (≈ 0.873 µM); in the assay with Escherichia coli [2], 4 µg/mL (≈ 6.99 µM); against Staphylococcus aureus [3], 0.5 µg/mL (≈ 0.873 µM); against Klebsiella pneumoniae [4], 2 µg/mL (≈ 3.49 µM); in [5], 0.125 µg/mL (≈ 0.218 µM); against Staphylococcus aureus [6] it was 8 µg/mL (≈ 14 µM).

With `COc1cc(-c2nn(CN3CCN(c4cc5c(cc4F)c(=O)c(C(=O)O)cn5[C@@H]4C[C@@H]4F)CC3)c(=S)n2-c2ccccc2)cc(OC)c1OC`, the MIC in the assay with Klebsiella pneumoniae [12] was 1.42 µM (≈ 1 µg/mL); against Pseudomonas aeruginosa [13], 0.71 µM (≈ 0.5 µg/mL); against Enterobacter cloacae it was not above 0.04 µM; in assay [14], 5.68 µM (≈ 4 µg/mL); against Escherichia coli [15] it was not above 0.04 µM.

As to `COc1ccc(-c2nn(CN3CCN(c4cc5c(cc4F)c(=O)c(C(=O)O)cn5[C@@H]4C[C@@H]4F)CC3)c(=S)n2-c2ccccc2)cc1OC`, the MIC against Klebsiella pneumoniae [12] was 2.97 µM (≈ 2 µg/mL); with Pseudomonas aeruginosa [13] it was 1.48 µM (≈ 0.999 µg/mL); with Enterobacter cloacae it was not above 0.04 µM; in assay [14], 23.7 µM (≈ 16 µg/mL); against Escherichia coli [15], not above 0.04 µM.

`O=C(O)c1cn(CCF)c2c(F)c(N3CCN(CC(O)Cn4cc([N+](=O)[O-])nc4Cl)CC3)c(F)cc2c1=O` (stereo unspecified): the MIC in [1] was 16 µg/mL (≈ 28.6 µM); in the assay with Escherichia coli [2], more than 32 µg/mL; against Staphylococcus aureus [3], 16 µg/mL (≈ 28.6 µM); with Klebsiella pneumoniae [4], more than 32 µg/mL; in assay [5], 2 µg/mL (≈ 3.58 µM); with Staphylococcus aureus [6] it was 32 µg/mL (≈ 57.3 µM).
